Experimental data reported in ChEMBL document CHEMBL3351877, “Synthesis and identification of α-cyano bis(indolyl)chalcones as novel anticancer agents” (Bioorg Med Chem Lett, 2014).
Blank lines part the entries; values can stand above or below the compound they belong to. The source made the active and inactive calls. The calls are words filed in the database; no cut-off is given here.

Legend:
[1] = Cytotoxicity against human MIAPaCa2 cells assessed as reduction in cell viability after 24 hrs by WST8 assay; type: functional, cell-based; settings: MIA PaCa-2, 24 h
[2] = Cytotoxicity against human MIAPaCa2 cells assessed as reduction in cell viability after 48 hrs by WST8 assay; type: functional, cell-based; settings: MIA PaCa-2, 48 h
A549 [3] = experiment: Cytotoxicity against human A549 cells assessed as reduction in cell viability after 48 hrs by WST8 assay; type: functional, cell-based; settings: A549, 48 h
[4] = Cytotoxicity against human PC3 cells assessed as reduction in cell viability after 24 hrs by WST8 assay; type: functional, cell-based; settings: PC-3, 24 h
A549 [5] = experiment: Cytotoxicity against human A549 cells assessed as reduction in cell viability after 24 hrs by WST8 assay; type: functional, cell-based; settings: A549, 24 h
[6] = Cytotoxicity against human PC3 cells assessed as reduction in cell viability after 48 hrs by WST8 assay; type: functional, cell-based; settings: PC-3, 48 h
Tubulin (Sus scrofa) = Tubulin (Sus scrofa) (UniProt P02554+P02550); experiment: Induction of porcine brain tubulin polymerization at 5 uM incubated for 10 to 40 mins by spectrophotometry
Chain of Tubulin (Sus scrofa) (P02550 whole entry, looked up): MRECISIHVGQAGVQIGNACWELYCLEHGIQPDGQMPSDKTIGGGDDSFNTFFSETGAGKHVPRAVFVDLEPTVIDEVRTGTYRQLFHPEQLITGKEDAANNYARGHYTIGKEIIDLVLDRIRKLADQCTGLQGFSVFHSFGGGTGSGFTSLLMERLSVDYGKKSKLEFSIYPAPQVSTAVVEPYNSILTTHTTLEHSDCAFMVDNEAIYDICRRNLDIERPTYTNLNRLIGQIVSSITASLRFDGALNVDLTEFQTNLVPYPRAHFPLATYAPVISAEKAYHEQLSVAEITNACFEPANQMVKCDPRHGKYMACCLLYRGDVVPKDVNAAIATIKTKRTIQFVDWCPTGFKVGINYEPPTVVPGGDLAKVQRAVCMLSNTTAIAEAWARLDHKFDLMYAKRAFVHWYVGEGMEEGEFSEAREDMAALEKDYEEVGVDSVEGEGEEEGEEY
Chain of Tubulin (Sus scrofa) (P02554 whole entry, looked up): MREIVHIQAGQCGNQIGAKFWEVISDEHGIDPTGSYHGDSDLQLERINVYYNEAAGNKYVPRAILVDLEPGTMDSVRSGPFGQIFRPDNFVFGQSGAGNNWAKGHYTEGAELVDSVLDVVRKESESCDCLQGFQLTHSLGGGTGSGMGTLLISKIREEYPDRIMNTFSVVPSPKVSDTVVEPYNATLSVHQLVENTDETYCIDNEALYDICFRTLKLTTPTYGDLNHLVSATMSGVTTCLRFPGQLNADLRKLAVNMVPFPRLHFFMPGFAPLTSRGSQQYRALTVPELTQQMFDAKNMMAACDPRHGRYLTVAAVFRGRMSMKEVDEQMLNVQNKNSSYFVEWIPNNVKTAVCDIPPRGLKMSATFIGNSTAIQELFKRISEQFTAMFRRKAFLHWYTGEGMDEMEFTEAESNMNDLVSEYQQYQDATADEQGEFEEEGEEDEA

Structure (SMILES): COc1ccc2c(C(=O)/C(C#N)=C/c3cn(Cc4ccc(Cl)cc4)c4ccccc34)c[nH]c2c1
IC50 [1]: > 50 µM
IC50 [2]: 40.4 µM
IC50 (A549 [3]): > 50 µM
IC50 [4]: > 50 µM
IC50 (A549 [5]): > 50 µM
IC50 [6]: > 50 µM

Structure (SMILES): COc1ccc2c(/C=C(\C#N)C(=O)c3c[nH]c4ccccc34)c[nH]c2c1
IC50 [1]: 27.5 µM
IC50 [2]: > 50 µM
IC50 (A549 [3]): 5.8 µM
IC50 [4]: 33.3 µM
IC50 (A549 [5]): 9.6 µM
IC50 [6]: 12.5 µM

Structure (SMILES): COc1ccc2[nH]cc(C(=O)/C(C#N)=C/c3c[nH]c4cc(F)ccc34)c2c1
IC50 [1]: > 50 µM
IC50 [2]: > 50 µM
IC50 (A549 [3]): > 50 µM
IC50 [4]: > 50 µM
IC50 (A549 [5]): > 50 µM
IC50 [6]: > 50 µM

Structure (SMILES): COc1ccc2[nH]cc(/C=C(\C#N)C(=O)c3c[nH]c4cc(F)ccc34)c2c1
IC50 [1]: > 50 µM
IC50 [2]: > 50 µM
IC50 (A549 [3]): 26.3 µM
IC50 [4]: > 50 µM
IC50 (A549 [5]): 18 µM
IC50 [6]: > 50 µM

Structure (SMILES): COc1ccc(Cn2cc(/C=C(\C#N)C(=O)c3c[nH]c4cc(F)ccc34)c3ccccc32)cc1
IC50 [1]: > 50 µM
IC50 [2]: 29.4 µM
IC50 (A549 [3]): 36.3 µM
IC50 [4]: > 50 µM
IC50 (A549 [5]): > 50 µM
IC50 [6]: > 50 µM

Structure (SMILES): COc1ccc(-c2[nH]c3ccccc3c2/C=C(\C#N)C(=O)c2c[nH]c3ccccc23)cc1
IC50 [1]: 24 µM
IC50 [2]: > 50 µM
IC50 (A549 [3]): 3 µM
IC50 [4]: 17.2 µM
IC50 (A549 [5]): 4.9 µM
IC50 [6]: 8.1 µM

Structure (SMILES): Cn1cc(/C=C(\C#N)C(=O)c2c[nH]c3ccccc23)c2ccccc21
IC50 [1]: 31.6 µM
IC50 [2]: > 50 µM
IC50 (A549 [3]): > 50 µM
IC50 [4]: > 50 µM
IC50 (A549 [5]): 27.9 µM
IC50 [6]: > 50 µM

Activity (Tubulin (Sus scrofa)): Active
Structure (SMILES): COc1ccc2c(/C=C(\C#N)C(=O)c3c[nH]c4cc(OC)ccc34)c[nH]c2c1
IC50 [1]: > 50 µM
IC50 [2]: > 50 µM
IC50 (A549 [3]): 1.7 µM
IC50 [4]: > 50 µM
IC50 (A549 [5]): 1.9 µM
IC50 [6]: 27 µM

Structure (SMILES): N#C/C(=C\c1c[nH]c2ccc(Br)cc12)C(=O)c1c[nH]c2ccc(Br)cc12
IC50 [1]: > 50 µM
IC50 [2]: > 50 µM
IC50 (A549 [3]): > 50 µM
IC50 [4]: > 50 µM
IC50 (A549 [5]): > 50 µM
IC50 [6]: > 50 µM

Structure (SMILES): COc1ccc2[nH]cc(/C=C(\C#N)C(=O)c3c[nH]c4ccccc34)c2c1
IC50 [1]: 21.2 µM
IC50 [2]: 25.1 µM
IC50 (A549 [3]): 13.7 µM
IC50 [4]: 33.2 µM
IC50 (A549 [5]): 6.6 µM
IC50 [6]: 30.5 µM

Activity (Tubulin (Sus scrofa)): Active
Structure (SMILES): COc1ccc2c(C(=O)/C(C#N)=C/c3c[nH]c4ccccc34)c[nH]c2c1
IC50 [1]: 13.5 µM
IC50 [2]: > 50 µM
IC50 (A549 [3]): 7.5 µM
IC50 [4]: > 50 µM
IC50 (A549 [5]): 6.4 µM
IC50 [6]: 12 µM

Structure (SMILES): COc1ccc2c(C(=O)/C(C#N)=C/c3c[nH]c4cc(F)ccc34)c[nH]c2c1
IC50 [1]: > 50 µM
IC50 [2]: > 50 µM
IC50 (A549 [3]): 0.8 µM
IC50 [4]: 36 µM
IC50 (A549 [5]): 2.4 µM
IC50 [6]: 22.5 µM

Structure (SMILES): N#C/C(=C\c1cn(Cc2ccc(Cl)cc2)c2ccc(Br)cc12)C(=O)c1c[nH]c2ccccc12
IC50 [1]: 37.7 µM
IC50 [2]: > 50 µM
IC50 (A549 [3]): 24.9 µM
IC50 [4]: 47.1 µM
IC50 (A549 [5]): 14 µM
IC50 [6]: 36.5 µM

Structure (SMILES): N#C/C(=C\c1cn(Cc2ccc(Cl)cc2)c2ccccc12)C(=O)c1c[nH]c2ccccc12
IC50 [1]: > 50 µM
IC50 [2]: > 50 µM
IC50 (A549 [3]): > 50 µM
IC50 [4]: > 50 µM
IC50 (A549 [5]): > 50 µM
IC50 [6]: > 50 µM

Structure (SMILES): COc1ccc2c(C(=O)/C(C#N)=C/c3c[nH]c4ccc(OC)cc34)c[nH]c2c1
IC50 [1]: > 50 µM
IC50 [2]: > 50 µM
IC50 (A549 [3]): 5.5 µM
IC50 [4]: 31.1 µM
IC50 (A549 [5]): 3.7 µM
IC50 [6]: 37.1 µM

Structure (SMILES): N#C/C(=C\c1cn(Cc2ccc(Cl)cc2)c2ccccc12)C(=O)c1c[nH]c2cc(F)ccc12
IC50 [1]: > 50 µM
IC50 [2]: 16.6 µM
IC50 (A549 [3]): > 50 µM
IC50 [4]: > 50 µM
IC50 (A549 [5]): > 50 µM
IC50 [6]: > 50 µM

Structure (SMILES): CO[C@@]12[C@H](COC(N)=O)C3=C(C(=O)C(C)=C(N)C3=O)N1C[C@@H]1N[C@@H]12 [MITOMYCIN]
IC50 (A549 [5]): 0.45 µM

Structure (SMILES): N#C/C(=C\c1c[nH]c2ccccc12)C(=O)c1c[nH]c2ccccc12
IC50 [1]: 17.9 µM
IC50 [2]: 36.8 µM
IC50 (A549 [3]): 22 µM
IC50 [4]: > 50 µM
IC50 (A549 [5]): 16.1 µM
IC50 [6]: > 50 µM

Structure (SMILES): COc1ccc2[nH]cc(/C=C(\C#N)C(=O)c3c[nH]c4ccc(OC)cc34)c2c1
IC50 [1]: 28.5 µM
IC50 [2]: > 50 µM
IC50 (A549 [3]): 24.5 µM
IC50 [4]: > 50 µM
IC50 (A549 [5]): > 50 µM
IC50 [6]: > 50 µM

Structure (SMILES): COc1ccc2c(/C=C(\C#N)C(=O)c3c[nH]c4cc(F)ccc34)c[nH]c2c1
IC50 [1]: > 50 µM
IC50 [2]: > 50 µM
IC50 (A549 [3]): 5.5 µM
IC50 [4]: > 50 µM
IC50 (A549 [5]): 10.3 µM
IC50 [6]: 21.4 µM

Structure (SMILES): COc1ccc(Cn2cc(/C=C(\C#N)C(=O)c3c[nH]c4ccccc34)c3ccccc32)cc1
IC50 [1]: > 50 µM
IC50 [2]: > 50 µM
IC50 (A549 [3]): > 50 µM
IC50 [4]: > 50 µM
IC50 (A549 [5]): > 50 µM
IC50 [6]: > 50 µM

Activity (Tubulin (Sus scrofa)): Active
Structure (SMILES): COc1ccc(Cn2cc(/C=C(\C#N)C(=O)c3c[nH]c4cc(OC)ccc34)c3ccccc32)cc1
IC50 [1]: > 50 µM
IC50 [2]: > 50 µM
IC50 (A549 [3]): 28.9 µM
IC50 [4]: > 50 µM
IC50 (A549 [5]): 37.4 µM
IC50 [6]: > 50 µM

Structure (SMILES): N#C/C(=C\c1c[nH]c2cc(F)ccc12)C(=O)c1c[nH]c2ccccc12
IC50 [1]: 23.5 µM
IC50 [2]: 31.6 µM
IC50 (A549 [3]): 22.7 µM
IC50 [4]: > 50 µM
IC50 (A549 [5]): 17 µM
IC50 [6]: > 50 µM

Structure (SMILES): N#C/C(=C\c1c[nH]c2cc(F)ccc12)C(=O)c1c[nH]c2cc(F)ccc12
IC50 [1]: > 50 µM
IC50 [2]: > 50 µM
IC50 (A549 [3]): 36.1 µM
IC50 [4]: > 50 µM
IC50 (A549 [5]): > 50 µM
IC50 [6]: > 50 µM
